The text below walks through data of patent US9186296B2, “Containers for compositions comprising meloxicam” (Boehringer Ingelheim Vetmedica GmbH, priority 2009, dated 2015).

The data set can be described thus: long-term stability programme according to VICH guideline 3 (storage in bottles of different materials). Type of data set: physicochemical. The conditions noted are these: PP bottles compared with bottles made of HDPE or LDPE; FIG. 4, 5, 6. The protocol: The preferred pharmaceutical composition filled into containers made of the different types of packaging has been subject to a long-term stability programme according to the conditions as described in the VICH guideline 3. The conditions used for storage were 25° C./60% r.h. (r.h.=relative humidity), 30° C./70% r.h., and 40° C. /75% r.h.
The stability studies of a 0.5 mg/ml suspension were carried out with 3 ml and 4 ml of the suspension being filled into 5 ml HDPE bottles. […] This has not been observed before for any of the suspensions (1.5 mg/ml or 0.5 mg/ml) or the different fill volumes. The shelf-life of the 1.5 mg/ml suspension with a 10 ml fill (in a 25 ml bottle) is for example at least 18 months. An acceptable shelf-life for commercial use of the product with a volume size for the treatment of cats for a few days (up to five days) cannot be established by using HDPE as the container material.
Thus, polypropylene is a suitable material for holding small volumes of oral suspensions comprising meloxicam and sodium benzoate as preservative. The suitability of PP is further shown by comparison with the unsuitable negative reference containers made of PET and PC, see FIGS. 1, 3, and 4.

For `O=C([O-])c1ccccc1.[Na+]` [sodium benzoate], the “decrease of sodium benzoate content over 18 months or at least 18 months” value was “significantly lower in PP bottles than in bottles made of either HDPE or LDPE”.
